Ki and Ratio Ki data for 8 molecules are collected here from ChEMBL document CHEMBL3400084, “Synthesis and evaluation of tetrahydroindazole derivatives as sigma-2 receptor ligands” (Bioorg Med Chem, 2015).

By Ki is commonly meant the dissociation constant of the complex between target and ligand, obtained from inhibition or displacement.

Each structure is given as a SMILES string.

The target of assay [1] is Sigma non-opioid intracellular receptor 1 (Cavia porcellus, UniProt Q60492). The assay is described as follows: Displacement of (+)-[3H]pentazocine from sigma 1 receptor in guinea pig brain homogenate after 120 mins by beta counting. Format: tissue-based.
A short description of assay [2]: Displacement of [3H]-di-o-tolylguanidine from sigma 2 receptor in Sprague-Dawley rat liver membranes after 120 mins by beta counting in presence of (+)-pentazocine. Format: cell membranes, Membrane. For orientation: In a radioligand displacement assay an active substance lowers the binding of a labelled ligand.
The nature of assay [3]: Selectivity ratio of Ki for sigma 1 receptor in guinea pig brain homogenate to Ki for sigma 2 receptor in Sprague-Dawley rat liver membranes. Format: cell membranes.

Sigma non-opioid intracellular receptor 1, sequence (Q60492 whole entry): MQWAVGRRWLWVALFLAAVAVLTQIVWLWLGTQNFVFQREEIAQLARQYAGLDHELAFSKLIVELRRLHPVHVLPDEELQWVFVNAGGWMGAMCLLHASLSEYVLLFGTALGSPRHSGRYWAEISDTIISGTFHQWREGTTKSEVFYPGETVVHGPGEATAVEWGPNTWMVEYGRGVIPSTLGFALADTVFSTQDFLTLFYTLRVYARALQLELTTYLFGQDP

For the molecule `COc1cc2c(cc1OC)CN(c1cc(-n3nc(C)c4c3CC(C)(C)CC4=O)ccc1C(N)=O)CC2`, the Ki in assay [1] was above 1000 nM; in assay [2], 18400 nM.
With `Cc1ccccc1NC(=N)Nc1ccccc1C` [DITOLYLGUANIDINE], the Ki in assay [2] amounted to 19.4 nM.
Take `COc1cc2c(cc1OC)CN(CCCCCCNc1cc(-n3nc(C)c4c3CC(C)(C)CC4=O)ccc1C(N)=O)CC2`: the values for the Ki in assay [1] and in assay [2] were above 1000 nM and 21500 nM, respectively.
Consider `Cc1nn(-c2ccc(C(N)=O)c(NC3CC4CCCC(C3)N4)c2)c2c1C(=O)CC(C)(C)C2` (centres undefined), for which the results for the Ki in assay [1] and in assay [2] were above 1000 nM and 46.6 nM, respectively. Moreover, the Ratio Ki in assay [3] is above 21.
As for `COc1cc2c(cc1OC)CN(CCNc1cc(-n3nc(C)c4c3CC(C)(C)CC4=O)ccc1C(N)=O)CC2`, the results for the Ki in assay [1] and in assay [2] were above 1000 nM and 820 nM, respectively.
On to `COc1cc2c(cc1OC)CN(CCCCNc1cc(-n3nc(C)c4c3CC(C)(C)CC4=O)ccc1C(N)=O)CC2`, for which the Ki in assay [1] is above 1000 nM; in assay [2], 142 nM. Also, the Ratio Ki in assay [3] is above 7.
As for `COc1cc2c(cc1OC)CN(CCCNc1cc(-n3nc(C)c4c3CC(C)(C)CC4=O)ccc1C(N)=O)CC2`, the Ki in assay [1] was above 1000 nM; in assay [2] it was 89.8 nM. In addition, the Ratio Ki in assay [3] is above 11.
Turning to `COc1cc2c(cc1OC)CN(CCCCCNc1cc(-n3nc(C)c4c3CC(C)(C)CC4=O)ccc1C(N)=O)CC2`, the Ki is above 1000 nM in assay [1] and 74.5 nM in assay [2]. In assay [3], the Ratio Ki is above 13.
